In ChEMBL document CHEMBL1201862, “PubChem BioAssay data set” (2004):
Active and inactive are the calls of the source.

Assays:
HeLa = experiment: ATP-based viability loss in HeLa cells – cell-based, CellTiter-Glo luminescence, cherry-pick samples, cytotoxicity control for MITF activator project, dose response (AID 540259); format: functional; conditions: Homo sapiens
Protein Wnt-3a = Protein Wnt-3a (Mus musculus, UniProt P27467); experiment: antagonism of Wnt3a pathway luciferase reporter – Wnt-LIGHT cells, luminescence, selectivity assay for Gli-SUFU antagonist project, dose response (AID 651570); format: functional; conditions: read-out: IC50_Mean;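 further: Wnt-LIGHT reporter cells stimulated with conditioned medium from Wnt3a-producing cells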
[1] = reduction of Shn3 3'UTR-driven luciferase in osteoblasts – cell-based, Clone20 osteoblasts, firefly luciferase, cherry-picked, dose response (AID 624132); format: functional;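 further: firefly luciferase luminescence from reporter carrying the Shn3 3'UTR in osteoblasts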
[2] = non-specific 3'UTR reporter inhibition in Clone20-Shn3RL – cell-based, Renilla luciferase, cherry-picked, counter-screen for Shn3 inhibitor project, dose response (AID 624133); format: functional
[3] = loss of viability in HepG2 cells – cell-based, CellTiter-Glo, cherry-picked, cytotoxicity control for Shn3 inhibitor project, dose response (AID 624134); format: functional
Prothrombin = Prothrombin (Homo sapiens, UniProt P00734); experiment: Thrombin 1536 HTS Dose Response Confirmation. [Related pubchem assays: 1046 (Thrombin 1536 HTS; hits were confirmed in this assay)]; format: functional
[4] = target: T1, Polyadenylate-binding protein 1 (Homo sapiens, UniProt P11940); experiment: MLLE domain peptide-binding blockers, IC50 – biochemical, fluorescence polarization, FITC-PAM2 peptide, dose response (AID 602259); format: functional; conditions: read-out: IC50_Mean
[5] = target: T1, Polyadenylate-binding protein 1; experiment: MLLE binding blockers, Cy5 peptide tracer – biochemical, fluorescence polarization, Cy5-PAM2 peptide, secondary, miRNA deadenylation inhibitor project, dose response (AID 602260); format: functional; conditions: read-out: IC50_Mean
Coagulation factor XII = target: T2, Coagulation factor XII (Homo sapiens, UniProt P00748); format: functional;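 further: activated factor XIIa alpha cleaving a fluorogenic AMC peptide substrate; inhibitor potency from loss of enzyme activity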
T2 sequence (P00748 whole entry): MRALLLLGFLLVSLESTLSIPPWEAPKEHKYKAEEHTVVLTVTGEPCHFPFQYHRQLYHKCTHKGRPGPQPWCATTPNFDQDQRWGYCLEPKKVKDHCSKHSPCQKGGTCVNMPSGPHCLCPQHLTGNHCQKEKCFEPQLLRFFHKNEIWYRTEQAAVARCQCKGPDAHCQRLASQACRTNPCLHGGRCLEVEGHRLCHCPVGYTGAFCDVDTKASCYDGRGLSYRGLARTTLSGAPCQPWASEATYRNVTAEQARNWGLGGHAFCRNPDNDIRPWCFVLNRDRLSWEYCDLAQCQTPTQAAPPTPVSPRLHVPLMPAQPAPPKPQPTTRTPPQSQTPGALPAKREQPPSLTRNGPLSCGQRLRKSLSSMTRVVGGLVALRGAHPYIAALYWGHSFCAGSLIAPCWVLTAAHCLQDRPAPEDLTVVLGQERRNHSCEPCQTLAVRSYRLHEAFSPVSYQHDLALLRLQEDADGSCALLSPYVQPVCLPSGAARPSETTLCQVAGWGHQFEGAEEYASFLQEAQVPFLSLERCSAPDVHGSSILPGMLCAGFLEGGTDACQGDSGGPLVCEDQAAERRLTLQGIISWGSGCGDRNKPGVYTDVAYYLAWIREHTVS

[6] = target: DNA dC->dU-editing enzyme APOBEC-3G (Homo sapiens, UniProt Q9HC16); experiment: Dose Response confirmation of small molecule APOBEC3G DNA Deaminase Inhibitors via a fluorescence-based single-stranded DNA deaminase assay. [Related pubchem assays (depositor defined):AID493012, AID493028]; format: functional
[7] = target: T3, Adenosylmethionine-8-amino-7-oxononanoate aminotransferase (Mycobacterium tuberculosis, UniProt P9WQ81); experiment: Mycobacterium tuberculosis BioA enzyme inhibitor Measured in Biochemical System Using Plate Reader - 2163-02_Inhibitor_Dose_CherryPick_Activity.; format: functional, Mycobacterium tuberculosis UT205
T3 sequence (P9WQ81 whole entry): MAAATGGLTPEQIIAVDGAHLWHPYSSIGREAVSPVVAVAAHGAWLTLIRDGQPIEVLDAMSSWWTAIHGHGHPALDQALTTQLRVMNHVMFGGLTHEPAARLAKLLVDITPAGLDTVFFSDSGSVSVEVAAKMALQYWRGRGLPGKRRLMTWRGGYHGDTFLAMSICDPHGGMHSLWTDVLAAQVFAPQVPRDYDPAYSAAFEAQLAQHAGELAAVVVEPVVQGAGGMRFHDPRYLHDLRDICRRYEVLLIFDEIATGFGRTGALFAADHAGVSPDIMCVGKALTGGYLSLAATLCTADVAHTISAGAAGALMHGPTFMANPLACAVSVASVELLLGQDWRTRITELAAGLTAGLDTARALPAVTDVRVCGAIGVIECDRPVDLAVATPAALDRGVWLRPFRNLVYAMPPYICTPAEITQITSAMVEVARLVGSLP

[8] = target: Induced myeloid leukemia cell differentiation protein Mcl-1 (Homo sapiens, UniProt Q07820); format: functional
Genome polyprotein = Genome polyprotein (dengue virus type 2, UniProt P29990); experiment: flavivirus cap methylation enzyme inhibition – biochemical, confirmation dose response, primary screen (AID 588689); format: functional
Leucine aminopeptidase = target: T4, Leucine aminopeptidase (Plasmodium falciparum 3D7, UniProt Q8IL11); experiment: P. falciparum M17LAP inhibitors, primary screen, biochemical, fluorogenic H-Leu-NHMec substrate, 1536-well (AID 1619); format: functional
T4 sequence (Q8IL11 whole entry): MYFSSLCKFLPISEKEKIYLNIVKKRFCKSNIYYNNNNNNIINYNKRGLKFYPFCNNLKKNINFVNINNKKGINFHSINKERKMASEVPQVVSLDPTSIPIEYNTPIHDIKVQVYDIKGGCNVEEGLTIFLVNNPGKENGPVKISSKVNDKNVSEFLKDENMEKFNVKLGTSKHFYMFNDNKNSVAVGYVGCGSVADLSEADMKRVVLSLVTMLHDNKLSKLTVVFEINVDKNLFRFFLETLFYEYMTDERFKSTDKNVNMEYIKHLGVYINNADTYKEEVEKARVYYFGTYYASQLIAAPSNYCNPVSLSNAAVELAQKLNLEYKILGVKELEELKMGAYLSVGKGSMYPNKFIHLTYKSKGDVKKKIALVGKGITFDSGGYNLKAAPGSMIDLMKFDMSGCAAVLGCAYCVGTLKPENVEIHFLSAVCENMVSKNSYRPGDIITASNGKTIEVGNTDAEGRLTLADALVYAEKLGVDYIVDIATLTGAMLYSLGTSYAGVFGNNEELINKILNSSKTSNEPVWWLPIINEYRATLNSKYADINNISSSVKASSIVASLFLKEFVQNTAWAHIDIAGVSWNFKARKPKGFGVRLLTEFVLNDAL

Chain of DNA dC->dU-editing enzyme APOBEC-3G (Q9HC16 whole entry): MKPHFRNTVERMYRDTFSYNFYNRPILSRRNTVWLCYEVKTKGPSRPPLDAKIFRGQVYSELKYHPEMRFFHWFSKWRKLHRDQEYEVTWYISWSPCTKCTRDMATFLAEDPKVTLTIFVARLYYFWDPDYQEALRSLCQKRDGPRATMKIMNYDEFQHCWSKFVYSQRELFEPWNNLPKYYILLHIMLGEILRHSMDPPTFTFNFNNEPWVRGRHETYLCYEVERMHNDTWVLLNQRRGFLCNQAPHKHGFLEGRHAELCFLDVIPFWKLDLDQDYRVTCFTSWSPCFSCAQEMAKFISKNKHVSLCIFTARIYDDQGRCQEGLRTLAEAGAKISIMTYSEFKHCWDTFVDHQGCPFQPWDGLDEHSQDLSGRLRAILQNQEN
T1 sequence (P11940 whole entry, the tested form may be a part): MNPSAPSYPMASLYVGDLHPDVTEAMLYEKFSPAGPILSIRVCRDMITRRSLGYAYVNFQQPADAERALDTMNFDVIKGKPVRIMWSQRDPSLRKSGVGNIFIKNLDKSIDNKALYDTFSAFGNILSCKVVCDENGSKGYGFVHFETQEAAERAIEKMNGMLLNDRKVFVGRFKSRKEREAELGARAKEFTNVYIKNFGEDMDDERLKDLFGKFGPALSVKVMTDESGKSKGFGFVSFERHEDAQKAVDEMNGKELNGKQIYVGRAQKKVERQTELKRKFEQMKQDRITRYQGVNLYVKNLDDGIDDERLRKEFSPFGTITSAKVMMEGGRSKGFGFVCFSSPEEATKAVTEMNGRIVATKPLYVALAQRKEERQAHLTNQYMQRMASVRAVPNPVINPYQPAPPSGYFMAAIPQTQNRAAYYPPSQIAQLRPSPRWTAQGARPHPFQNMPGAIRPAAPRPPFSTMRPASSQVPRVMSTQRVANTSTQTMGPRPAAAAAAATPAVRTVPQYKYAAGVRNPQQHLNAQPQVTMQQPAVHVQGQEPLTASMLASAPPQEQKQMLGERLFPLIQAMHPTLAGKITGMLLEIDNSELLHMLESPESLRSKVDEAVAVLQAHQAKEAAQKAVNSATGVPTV
Chain of Genome polyprotein (P29990 2492-3391 limits assumed): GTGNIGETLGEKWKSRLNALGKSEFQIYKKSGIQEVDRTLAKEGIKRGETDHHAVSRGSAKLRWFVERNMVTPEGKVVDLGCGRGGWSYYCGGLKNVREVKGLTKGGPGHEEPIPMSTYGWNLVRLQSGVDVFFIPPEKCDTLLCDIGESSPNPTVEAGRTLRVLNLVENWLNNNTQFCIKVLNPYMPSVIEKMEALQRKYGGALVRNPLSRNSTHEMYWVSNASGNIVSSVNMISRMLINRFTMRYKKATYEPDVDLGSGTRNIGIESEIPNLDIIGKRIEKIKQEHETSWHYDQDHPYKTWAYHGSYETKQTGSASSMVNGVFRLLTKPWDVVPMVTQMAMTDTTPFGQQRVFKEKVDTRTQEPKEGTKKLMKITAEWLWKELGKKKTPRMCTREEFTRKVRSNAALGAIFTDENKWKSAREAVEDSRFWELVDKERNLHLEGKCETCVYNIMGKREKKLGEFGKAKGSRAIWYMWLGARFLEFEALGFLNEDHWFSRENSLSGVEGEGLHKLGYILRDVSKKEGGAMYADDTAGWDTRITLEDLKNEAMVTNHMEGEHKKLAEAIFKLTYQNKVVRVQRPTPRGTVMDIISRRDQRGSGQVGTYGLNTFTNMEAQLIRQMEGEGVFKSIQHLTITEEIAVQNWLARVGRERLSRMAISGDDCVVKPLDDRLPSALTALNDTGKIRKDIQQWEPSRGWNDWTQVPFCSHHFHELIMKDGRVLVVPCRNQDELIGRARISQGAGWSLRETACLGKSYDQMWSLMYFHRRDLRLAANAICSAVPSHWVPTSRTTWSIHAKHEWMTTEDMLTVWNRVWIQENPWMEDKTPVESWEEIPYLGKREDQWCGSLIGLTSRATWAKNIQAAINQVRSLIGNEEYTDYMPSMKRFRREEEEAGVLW
Chain of Induced myeloid leukemia cell differentiation protein Mcl-1 (Q07820 whole entry): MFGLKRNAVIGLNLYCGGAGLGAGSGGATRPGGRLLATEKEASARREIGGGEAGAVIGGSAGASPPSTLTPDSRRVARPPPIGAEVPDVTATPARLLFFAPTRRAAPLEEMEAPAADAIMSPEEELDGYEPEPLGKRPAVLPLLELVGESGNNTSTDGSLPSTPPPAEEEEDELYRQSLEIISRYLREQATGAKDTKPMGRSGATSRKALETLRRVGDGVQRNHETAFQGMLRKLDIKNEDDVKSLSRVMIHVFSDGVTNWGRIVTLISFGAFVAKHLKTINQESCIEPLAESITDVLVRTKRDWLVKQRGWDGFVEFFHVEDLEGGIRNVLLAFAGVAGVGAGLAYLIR
Chain of Protein Wnt-3a (P27467 whole entry): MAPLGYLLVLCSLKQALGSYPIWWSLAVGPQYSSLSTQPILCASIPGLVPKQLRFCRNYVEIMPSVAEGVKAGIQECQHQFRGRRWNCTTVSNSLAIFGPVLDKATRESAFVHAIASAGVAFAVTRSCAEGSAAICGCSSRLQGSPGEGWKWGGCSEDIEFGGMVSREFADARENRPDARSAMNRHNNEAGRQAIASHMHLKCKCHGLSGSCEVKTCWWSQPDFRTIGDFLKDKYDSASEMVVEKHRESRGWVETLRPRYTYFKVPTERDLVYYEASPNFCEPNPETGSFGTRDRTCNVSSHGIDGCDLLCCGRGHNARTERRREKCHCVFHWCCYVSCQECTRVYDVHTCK

Which AC50 (HeLa) does the source give for `Cc1ccc(NC(=O)c2ccc3ccccc3n2)cc1S(=O)(=O)N(C)C` here?
The AC50 was 35.4 µM (active).

What does the source list for `CCN(CC)S(=O)(=O)c1ccc(S(=O)(=O)N2CCCC(C(=O)NC3CC3)C2)cc1` (stereo not drawn)?
IC50 (Protein Wnt-3a): 0.444 µM (active); AC50 [1]: 2.9 µM (active); AC50 [2]: 9.46 µM (active); AC50 [3]: 52 µM (active)

With `CCOC(=O)N1CCN(C(=O)c2oc3ccc(S(=O)(=O)N4CCOCC4)cc3c2C)CC1` as the molecule, how does the IC50 (Prothrombin) read?
Its IC50 is > 50 µM (not active).

Which IC50 [4] does the source give for `COc1ccc(NC(=S)NC(=O)c2ccccc2)cn1` here?
Its IC50 is > 66 µM (inactive).

And the IC50 [5]?
The IC50 was > 66 µM (inactive).

With `CCOCCn1c(-c2ccc(OC)cc2)nc2ccccc21` as the molecule, how does the IC50 (Coagulation factor XII) read?
Its IC50 is > 50 µM (inactive).

For `CCOC(=O)c1sc(=S)n(C)c1NC(=O)c1ccc(OC)cc1`, which IC50 [6] is on record?
Its IC50 is 41.1 µM (active).

Which IC50 (Prothrombin) does the source give for `CCCN1CCC(N2CCCC(C(=O)O)C2)CC1` (stereo not drawn) here?
The IC50 was > 50 µM (not active).

For `c1ccc2c(c1)OCC(c1nnc3sc(-c4ccc5c(c4)OCO5)nn13)O2` (stereo not drawn), which IC50 [6] is on record?
Its IC50 is 52.8 µM (active).

With `COc1ccc(/C=C(\C#N)c2n[nH]c(Cn3cncn3)n2)cc1` as the molecule, how does the IC50 (Coagulation factor XII) read?
Its IC50 is > 50 µM (inconclusive).

For `CC1(C(=O)NCc2ccc(F)c(F)c2)Cc2c(-c3cccc(C(N)=O)c3)ccnc2O1` (stereo not drawn), which AC50 [7] is on record?
Its AC50 is 0.498 µM (active).

Which results are given for `Cc1ccc(-c2nn(-c3ccccc3)cc2/C=C2\SC(=S)N(CC(=O)O)C2=O)cc1`?
IC50 [8]: 4.14 µM (active); IC50 (Genome polyprotein): 36.5 µM (active)

Which IC50 (Leucine aminopeptidase) does the source give for `CC1=NNC(=O)C1CCC(=O)N/N=C(/C)c1ccc([N+](=O)[O-])cc1` (stereo not drawn) here?
Its IC50 is 80.6 µM (active).

For `NC(=O)N/N=C/C=C/c1ccccc1` [PHENYLETHENYLSEMICARBAZONE], which IC50 (Prothrombin) is on record?
Its IC50 is > 50 µM (not active).
